Measurements: PMC9414874, “New Benzimidazoles Targeting Breast Cancer: Synthesis, Pin1 Inhibition, 2D NMR Binding, and Computational Studies” (Molecules, 2022)
Where “and” joins values, the source holds several entries; their conditions need not be identical. Equal values may be shown once. Read-outs that look alike come from different tables or passages of the source.

Experiments:
ROS in MCF-7 cells = assay: Intracellular ROS accumulation assay (Human ROS ELISA Kit); format: cell-based
Text: Reactive oxygen species (ROS) are chemically reactive species containing oxygen atoms including peroxides, superoxide, and hydroxyl radicals. They play an important role in the activation of apoptosis under physiological or pathological conditions. Direct or indirect ROS action can mediate the release of mitochondrial cytochrome c which trigger the induction of caspase. The intracellular level of ROS was estimated by The Human ROS ELISA Kit, which is based on standard sandwich enzyme-linked immunosorbent assay technology.
The Human ROS ELISA Kit is based on standard sandwich enzyme-linked immunosorbent assay technology. In which, the anti-Human ROS specific antibody has been pre-coated onto a 96-well plate and the human ROS present in the standards/samples bind to the capture antibody. Then biotinylated anti-Human ROS detection antibody is added to form an Ab-Ag-Ab sandwich. After a washing step, streptavidin-HRP is added and the unbound conjugate is removed with wash buffer. Subsequently, the addition of HRP substrate, TMB, results in the production of a blue-colored product that changes to yellow after the addition of acidic Stop Solution, and the density of yellow color is directly proportional to the amount of Human ROS captured on the plate. […] After that adding 90 μL TMB substrate, incubating 15–30 min at 37 °C, adding 50 μL Stop Solution and reading at 450 nm immediately. […]

caspase-7 = assay: Caspase-7 level by ELISA in MCF-7 cells; format: cell-based, human
Method: (§1) Apoptosis can be excited by different stimuli via intrinsic and extrinsic pathways. It was reported that pin 1 inhibition involving apoptosis was performed via intrinsic mitochondrial l) pathways. […] The Bax/Bcl-2 ratio plays an important role in controlling the release of mitochondrial cytochrome c, after its release to the cytosol, caspase 9 is activated which can mediate downstream caspase activation including: caspase-3, caspase-6, and caspase-7 that obligated cells to apoptosis. Based on the above, we examined compound 8 capability to trigger intrinsic apoptotic pathways by affecting the expression of these markers in MCF-7 cells. […] In addition, it elevated the level of cytochrome C by about 2.49-fold compared to the control. […]
(§2) The level of BAX, Bcl-2, cytochrome C, and caspases 6, 7, and 9 were estimated using ELISA colorimetric kits; for BAX (DRG® Human Bax ELISA, EIA-4487), Bcl-2 (Zymed® Bcl-2 ELISA Kit), cytochrome c (Abcam cytochrome c Human ELISA kit, ab119521), caspase-6 (Human CASP6, ELISA Kit, MBS2533323), caspase-7 (Caspase-7 (Human) ELISA Kit, E4295-100), caspase-9 (DRG® Caspase-9 (human) ELISA, EIA-4860). […] This lysate was diluted in Standard Diluent Buffer all over the assay, then by using a microplate reader set at 450 nm, the optical density of each well was determined within 30 min to determine the human active BAX, Bcl-2, cytochrome C, caspases 6, 7 and 9 content.

MCF-7 cells [1] = assay: Annexin V-FITC/PI dual staining apoptosis assay; format: cell-based, human; conditions: MCF-7, 2 µM, 24 h
Method: This assay was performed using a breast MCF-7 cell line to determine the percentage of apoptosis induced by compound 8, in which MCF-cells were incubated with compound 8 at 2 µM concentration for 24 h.
Apoptosis detection was performed by using Annexin V-FITC and PI apoptosis kit (eBioscience^TM, San Diego, CA, USA). Mcf cells were plated at a 600,000 cells/mL density onto a six well plate. After 24 h of incubation, the cells were treated with compound 8 at […]. Cells grown in media containing an equivalent amount of DMSO served as solvent control. After 24 h, the cells were stained with an Annexin V-FITC conjugate and propidium iodide (PI), and the percentage of apoptotic, necrotic, and living cells was determined according to the protocol provided by the Annexin V-FITC and PI apoptosis kit. The cells’ emitted fluorescence was analyzed by flow cytometry (NovoCyte, ACEA Biosciences Inc., San Diego, CA, USA) through the NovoExpress 1.3.0 software (ACEA Biosciences Inc., San Diego, CA, USA), acquiring 1 × 104 events per sample using the population plot “dot plot”, where each point corresponds to a single event with a specific fluorescence signal about the axes; Annexin V-FITC green fluorescence in abscissa vs. PE red fluorescence inordinate.

Pin1 = Pin1 (Homo sapiens, UniProt Q13526); assay: Pin1 inhibition assay (SensoLyte Green Pin1 Assay Kit); format: biochemical; set-up: purchased; conditions: means ± SD of three experiments
Pin1, sequence (Q13526 whole entry): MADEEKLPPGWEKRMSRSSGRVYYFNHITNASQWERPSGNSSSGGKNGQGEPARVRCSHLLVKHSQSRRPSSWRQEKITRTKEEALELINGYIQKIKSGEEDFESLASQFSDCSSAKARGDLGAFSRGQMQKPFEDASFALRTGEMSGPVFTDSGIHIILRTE
Method: The ability of the synthesized compounds to inhibit the Pin1 activity was evaluated using the SensoLyte® Green Pin1 Assay Kit. This assay is based on using a fluorogenic substrate which was pretreated to convert it into the cis isomer. Pin1 can change this substrate into the trans isomer that is easily cleaved to generate a fluorescent signal.

MCF-7 cells [2] = assay: Cell cycle distribution / DNA content by flow cytometry; format: cell-based, human; conditions: MCF-7, 2 µM, 24 h
Bcl-2 = Bcl-2 level by ELISA in MCF-7 cells; format: cell-based, human
Method: as §1, §2

cytochrome C = assay: Cytochrome c level by ELISA in MCF-7 cells; format: cell-based, human
Method: as §1, §2

caspase-6 = assay: Caspase-6 level by ELISA in MCF-7 cells; format: cell-based, human; conditions: mean ± SD of three experiments
Method: as §1, §2

MCF-7 = assay: MTT cytotoxicity assay against breast cancer cell line MCF-7; conditions: for IC50: Homo sapiens
Method: All our newly synthesized hybrids were evaluated for their in vitro anticancer activity by the standard MTT assay against a breast cancer cell line (MCF-7). MTT is a calorimetric assay which relies on the ability of live tumor cells to reduce yellow MTT (3-(4,5-dimethylthiazol-2-yl)-2,5-diphenyltetrazolium bromide) to purple formazan by mitochondrial dehydrogenases, then added DMSO to dissolve the purple formazan and quantified by measuring absorbance at a certain wavelength. The dose response curve for compounds-treated vs. untreated cells is used to quantify the amount of formazan produced to report on the effectiveness of the compounds. […] Cell line: Mammary gland breast cancer (MCF-7). The cell line was obtained from ATCC via Holding company for biological products and vaccines (VACSERA), Cairo, Egypt. […] The cell line elucidated above were used to determine the inhibitory effects of compounds on cell growth using the MTT assay. […] After incubation, the cells were treated with different concentrations of compounds and incubated for an additional 24 h. After 24 h of drug treatment, 20 µL of MTT solution at 5 mg/mL was added and incubated for 4 h. […] The relative cell viability in percentage was calculated as (A570 of treated samples/A570 of the untreated sample) × 100 [48].

BAX = BAX level by ELISA in MCF-7 cells; format: cell-based, human
Method: as §1, §2

[3] = In vitro cytotoxicity against normal Human lung fibroblast (WI38) cell line; format: cell-based; conditions: human, WI38 normal lung fibroblast cells
WI38 = assay: as above; format: cell-based
caspase-9 = assay: Caspase-9 level by ELISA in MCF-7 cells; format: cell-based, human
Method: as §1, §2

- IC50 (Pin1): 0.00076 ± 4e-05 µM
- melting point: 155 to 158 °C
SMILES: CN(C)c1ccc(C2CC(c3nc4cc(Cl)c(Cl)cc4[nH]3)=NO2)cc1 (stereo not shown) [Compound 8, 4-(3-(5,6-Dichloro-1H-benzo[d]imidazol-2-yl)-4,5-dihydroisoxazol-5-yl)-N,N-dimethylaniline]
- ROS accumulation higher than the control cells (ROS in MCF-7 cells): 1.258 fold
- Enhancement of caspase 7 level compared to the control (caspase-7): ~9.06 fold
- Casp.7 level (caspase-7; mean ± SD of three experiments): 4.17 ± 0.11 ng/mL
- Apoptosis Early (MCF-7 cells [1]): 3.7% and 3.71%
- Apoptosis Late (MCF-7 cells [1]): 15.32%
- Apoptosis Total (MCF-7 cells [1]): 38.25%
- Increase of apoptosis (15.32%) over untreated cells (MCF-7 cells [1]): 128 fold
- Necrosis (MCF-7 cells [1]): 19.22%
- DNA Content %G0-G1 (MCF-7 cells [2]): 44.29%
- DNA Content %G2-M (MCF-7 cells [2]): 6.45%
- DNA Content %Pre G1 (MCF-7 cells [2]): 38.25%
- DNA Content %S (MCF-7 cells [2]): 49.26%
- Decrease of Bcl-2 level compared to the control (Bcl-2): 39%
- BCL-2 level (Bcl-2; mean ± SD of three experiments): 2.81 ± 0.07 ng/mL
- Elevation of cytochrome C level compared to the control (cytochrome C): about 2.49 fold
- Cytoc level (cytochrome C; mean ± SD of three experiments): 0.62 ± 0.02 ng/mL
- Casp.6 level (caspase-6): 0.48 ± 0.02 ng/mL
- IC50 (MCF-7; MCF7, 24 h, read-out: In Vitro Cytotoxicity IC50 MCF-7, MTT assay, 24 h treatment): 8.7 ± 0.6 µM
- IC50 (MCF-7; MCF7, read-out: IC50 against breast cancer cell line (MCF-7), MTT assay, section 2.2): 8.76 µM
- Cytotoxic activity class against MCF-7 (MCF-7; class by IC50): very strong (1–10 (very strong))
- Increase of Bax level compared to the control (BAX): 4.63 fold
- BAX level (BAX; mean ± SD of three experiments): 268.71 ± 9.20 pg/mL
- IC50 at 24 h [3]: 71.6 µM
- IC50 (WI38): 71.6 ± 4 µM
- Enhancement of caspase 9 level compared to the control (caspase-9): ~8.97 fold
- Casp.9 level (caspase-9; mean ± SD of three experiments): 20.86 ± 0.73 ng/mL
